Source: ChEMBL document CHEMBL3425496, “Exploring experimental and computational markers of cyclic peptides: Charting islands of permeability” (Eur J Med Chem, 2015)
Square brackets hold non-standard residues; d marks the D form. Peptide text beside a SMILES is read from it. NMeY = CN[C@@H](Cc1ccc(O)cc1)C(=O)O; NMeT = CN[C@H](C(=O)O)[C@@H](C)O; NMeL = CN[C@@H](CC(C)C)C(=O)O; Sar = CNCC(=O)O

Experiments:
[1] = Apparent permeability from apical to basolateral side in human Caco2 cells by LC-MS analysis; format: ADME, cell-based; settings: Caco-2
[2] = Apparent permeability of the compound at 50 uM after 5 hrs by PAMPA method; format: physicochemical

For `CC[C@H](C)[C@@H]1NC(=O)[C@H](Cc2ccc(O)cc2)NC(=O)[C@H](Cc2ccccc2)NC(=O)CNC(=O)[C@H](C(C)C)NC(=O)CNC1=O` (cyclo(FYIGVG)), the Papp A→B [1] was 0.06 ×10⁻⁶ cm/s and the Papp at 5 h, 50 µM [2] was 0.01 ×10⁻⁶ cm/s.

Work on `CC(C)C[C@H]1NC(=O)[C@H](Cc2ccccc2)NC(=O)CN(C)C(=O)[C@@H](C)N(C)C(=O)[C@H](Cc2ccc(O)cc2)NC(=O)[C@@H]2CCCN2C1=O` yielded a Papp A→B [1] of 0.63 ×10⁻⁶ cm/s and a Papp at 5 h, 50 µM [2] of 0.07 ×10⁻⁶ cm/s.

`CC(C)C[C@H]1C(=O)N2CCC[C@H]2C(=O)N[C@@H](Cc2ccc(O)cc2)C(=O)N(C)[C@H](C)C(=O)N(C)CC(=O)N[C@H](Cc2ccccc2)C(=O)N1C` showed a Papp A→B [1] of under 0.14 ×10⁻⁶ cm/s and a Papp at 5 h, 50 µM [2] of 0.14 ×10⁻⁶ cm/s.

`CC(C)C[C@@H]1NC(=O)[C@H](Cc2ccccc2)NC(=O)CN(C)C(=O)[C@H](CC(C)C)N(C)C(=O)[C@H](Cc2ccc(O)cc2)NC(=O)[C@@H]2CCCN2C1=O` (cyclo(FLPY[NMeL][Sar])) gave a Papp A→B [1] of 0.1 ×10⁻⁶ cm/s and a Papp at 5 h, 50 µM [2] of 0.1 ×10⁻⁶ cm/s.

Compound `CC(C)C[C@@H]1NC(=O)[C@@H](CC(C)C)NC(=O)[C@@H](CC(C)C)NC(=O)[C@H](Cc2c[nH]c3ccccc23)NC(=O)[C@@H]2CCCN2C(=O)[C@@H](CC(C)C)NC1=O` has a Papp A→B [1] of 17.5 ×10⁻⁶ cm/s and a Papp at 5 h, 50 µM [2] of 2.53 ×10⁻⁶ cm/s.

In the case of `CC(C)C[C@@H]1NC(=O)[C@@H](CC(C)C)NC(=O)[C@H](CC(C)C)NC(=O)[C@H](Cc2ccc(O)cc2)N(C)C(=O)[C@H]2CCCN2C(=O)[C@H](CC(C)C)NC1=O` (cyclo(LL[dP][NMeY]L[dL])), the Papp A→B [1] is reported as 9.13 ×10⁻⁶ cm/s and the Papp at 5 h, 50 µM [2] is reported as 1.29 ×10⁻⁶ cm/s.

`CC(C)C[C@@H]1NC(=O)[C@H](Cc2ccc(O)cc2)N(C)C(=O)[C@H]2CCCN2C(=O)[C@H](CC(C)C)NC(=O)[C@H](CC(C)C)N(C)C(=O)[C@@H](CC(C)C)NC1=O` gave a Papp A→B [1] of 11.3 ×10⁻⁶ cm/s and a Papp at 5 h, 50 µM [2] of 1.31 ×10⁻⁶ cm/s.

In the case of `CC(C)C[C@@H]1NC(=O)[C@H](CC(C)C)N(C)C(=O)[C@H](Cc2ccc(O)cc2)NC(=O)[C@@H]2CCCN2C(=O)[C@H]2CCCN2C(=O)[C@@H](CC(C)C)NC1=O`, the Papp A→B [1] is reported as 1.04 ×10⁻⁶ cm/s and the Papp at 5 h, 50 µM [2] is reported as 0.29 ×10⁻⁶ cm/s.

`CC(C)C[C@@H]1NC(=O)[C@@H](CC(C)C)NC(=O)[C@H](Cc2ccccc2)NC(=O)CNC(=O)[C@@H](C)NC(=O)[C@H](Cc2ccc(O)cc2)NC1=O` gave a Papp A→B [1] of 0.72 ×10⁻⁶ cm/s and a Papp at 5 h, 50 µM [2] of 0.02 ×10⁻⁶ cm/s.

In the case of `CC(C)C[C@@H]1NC(=O)[C@H](Cc2ccccc2)NC(=O)[C@H]([C@@H](C)O)NC(=O)CNC(=O)[C@H]([C@@H](C)O)NC(=O)[C@H](Cc2ccc(O)cc2)NC1=O` (cyclo(FLYTGT)), the Papp A→B [1] is reported as 0.04 ×10⁻⁶ cm/s and the Papp at 5 h, 50 µM [2] is reported as 0.02 ×10⁻⁶ cm/s.

`CC(C)C[C@@H]1NC(=O)[C@@H](CC(C)C)NC(=O)[C@@H](CC(C)C)NC(=O)[C@@H](CC(C)C)NC(=O)[C@H](Cc2c[nH]c3ccccc23)NC(=O)[C@@H]2CCCN2C1=O` gave a Papp A→B [1] of 0.36 ×10⁻⁶ cm/s and a Papp at 5 h, 50 µM [2] of 0.28 ×10⁻⁶ cm/s.

Work on `CC(C)C[C@H]1NC(=O)[C@H](Cc2ccccc2)NC(=O)CNC(=O)[C@@H](C)NC(=O)[C@H](Cc2ccc(O)cc2)NC(=O)[C@@H]2CCCN2C1=O` yielded a Papp A→B [1] of 0.58 ×10⁻⁶ cm/s and a Papp at 5 h, 50 µM [2] of 0.07 ×10⁻⁶ cm/s.

For `CC(C)C[C@@H]1NC(=O)[C@H](Cc2c[nH]c3ccccc23)NC(=O)[C@H]2CCCN2C(=O)[C@H](CC(C)C)NC(=O)[C@H](CC(C)C)NC(=O)[C@@H](CC(C)C)NC1=O`, the Papp A→B [1] was 5.95 ×10⁻⁶ cm/s and the Papp at 5 h, 50 µM [2] was 1.67 ×10⁻⁶ cm/s.

With `CC(C)C[C@@H]1NC(=O)[C@H](Cc2ccccc2)NC(=O)[C@H]([C@@H](C)O)NC(=O)CNC(=O)[C@H](C)NC(=O)[C@H](Cc2ccc(O)cc2)NC1=O` (cyclo(AGTFLY)) the Papp A→B [1] was 0.46 ×10⁻⁶ cm/s and the Papp at 5 h, 50 µM [2] was 0.02 ×10⁻⁶ cm/s.

Compound `CC(C)C[C@@H]1NC(=O)[C@H](Cc2c[nH]c3ccccc23)NC(=O)[C@@H]2CCCN2C(=O)[C@H]2CCCN2C(=O)[C@@H](CC(C)C)NC(=O)[C@H](CC(C)C)NC1=O` has a Papp A→B [1] of 0.21 ×10⁻⁶ cm/s and a Papp at 5 h, 50 µM [2] of 0.19 ×10⁻⁶ cm/s.

`CC(C)C[C@@H]1NC(=O)[C@H](Cc2ccc(O)cc2)NC(=O)[C@@H]2CCCN2C(=O)[C@@H](CC(C)C)NC(=O)[C@@H](CC(C)C)N(C)C(=O)[C@@H](CC(C)C)N(C)C1=O` showed a Papp A→B [1] of 21.8 ×10⁻⁶ cm/s and a Papp at 5 h, 50 µM [2] of 3.83 ×10⁻⁶ cm/s.

In the case of `CC(C)C[C@@H]1NC(=O)[C@H](Cc2ccccc2)NC(=O)[C@H]([C@@H](C)O)N(C)C(=O)CN(C)C(=O)[C@H]([C@@H](C)O)NC(=O)[C@H](Cc2ccc(O)cc2)NC1=O` (cyclo(FLYT[Sar][NMeT])), the Papp A→B [1] is reported as 0.1 ×10⁻⁶ cm/s and the Papp at 5 h, 50 µM [2] is reported as 0.01 ×10⁻⁶ cm/s.

Compound `CC(C)C[C@@H]1C(=O)N(C)[C@@H](CC(C)C)C(=O)N[C@@H](Cc2ccc(O)cc2)C(=O)N(C)[C@H](C)C(=O)N(C)CC(=O)N[C@@H](Cc2ccccc2)C(=O)N1C` has a Papp A→B [1] of 4.77 ×10⁻⁶ cm/s and a Papp at 5 h, 50 µM [2] of 0.93 ×10⁻⁶ cm/s.

In the case of `CC(C)C[C@H]1NC(=O)[C@@H](Cc2ccccc2)NC(=O)CNC(=O)[C@H](C)NC(=O)[C@H](Cc2ccc(O)cc2)NC(=O)[C@@H]2CCCN2C1=O`, the Papp A→B [1] is reported as under 0.14 ×10⁻⁶ cm/s and the Papp at 5 h, 50 µM [2] is reported as 0.01 ×10⁻⁶ cm/s.

For `CC(C)C[C@@H]1NC(=O)[C@H](Cc2ccccc2)NC(=O)[C@H]([C@@H](C)O)NC(=O)CNC(=O)[C@H](C(C)C)NC(=O)[C@H](Cc2ccc(O)cc2)NC1=O` (cyclo(FLYVGT)), the Papp A→B [1] was 0.11 ×10⁻⁶ cm/s and the Papp at 5 h, 50 µM [2] was 0.04 ×10⁻⁶ cm/s.

With `CC(C)C[C@@H]1NC(=O)[C@H](Cc2ccc(O)cc2)NC(=O)[C@H]2CCCN2C(=O)[C@H](CC(C)C)NC(=O)[C@H](CC(C)C)N(C)C(=O)[C@@H](CC(C)C)NC1=O` (cyclo(L[dL][NMeL]L[dP]Y)) the Papp A→B [1] was 7.83 ×10⁻⁶ cm/s and the Papp at 5 h, 50 µM [2] was 0.76 ×10⁻⁶ cm/s.

For `CC(C)C[C@@H]1NC(=O)[C@H](Cc2ccccc2)NC(=O)[C@@H](CC(C)C)N(C)C(=O)[C@H](CC(C)C)N(C)C(=O)[C@H](Cc2ccc(O)cc2)NC(=O)[C@@H]2CCCN2C1=O`, the Papp A→B [1] was 12 ×10⁻⁶ cm/s and the Papp at 5 h, 50 µM [2] was 0.41 ×10⁻⁶ cm/s.

With `CC(C)C[C@@H]1NC(=O)[C@@H](CC(C)C)N(C)C(=O)[C@@H](CC(C)C)N(C)C(=O)[C@H](Cc2ccc(O)cc2)NC(=O)[C@@H]2CCCN2C(=O)[C@@H](CC(C)C)NC1=O` the Papp A→B [1] was 11.9 ×10⁻⁶ cm/s and the Papp at 5 h, 50 µM [2] was 0.67 ×10⁻⁶ cm/s.

For `C[C@@H](O)[C@@H]1NC(=O)[C@H](CCCCN)NC(=O)[C@@H](Cc2c[nH]c3ccccc23)NC(=O)[C@H](Cc2ccccc2)NC(=O)[C@@H]2CCCN2C(=O)[C@H](Cc2ccccc2)NC1=O`, the Papp A→B [1] was 0.93 ×10⁻⁶ cm/s and the Papp at 5 h, 50 µM [2] was 0.08 ×10⁻⁶ cm/s.

With `CC[C@H](C)[C@@H]1NC(=O)[C@H](Cc2c[nH]c3ccccc23)NC(=O)[C@H]2CCCN2C(=O)[C@H]([C@@H](C)CC)NC(=O)[C@H]([C@@H](C)CC)NC(=O)[C@@H](CC(C)C)NC1=O` the Papp A→B [1] was 3.06 ×10⁻⁶ cm/s and the Papp at 5 h, 50 µM [2] was 0.41 ×10⁻⁶ cm/s.

In the case of `CC(C)C[C@@H]1NC(=O)[C@H](Cc2ccc(O)cc2)NC(=O)[C@@H]2CCCN2C(=O)[C@H]2CCCN2C(=O)[C@@H](CC(C)C)NC(=O)[C@H](CC(C)C)NC1=O`, the Papp A→B [1] is reported as 0.1 ×10⁻⁶ cm/s and the Papp at 5 h, 50 µM [2] is reported as 0.09 ×10⁻⁶ cm/s.

Compound `CC(C)C[C@@H]1NC(=O)[C@@H](Cc2ccccc2)NC(=O)CNC(=O)[C@@H](C)NC(=O)[C@H](Cc2ccc(O)cc2)NC(=O)[C@@H]2CCCN2C1=O` has a Papp A→B [1] of 0.09 ×10⁻⁶ cm/s and a Papp at 5 h, 50 µM [2] of 0.01 ×10⁻⁶ cm/s.

With `CC(C)C[C@H]1NC(=O)[C@@H](Cc2ccccc2)NC(=O)CN(C)C(=O)[C@H](C)N(C)C(=O)[C@H](Cc2ccc(O)cc2)NC(=O)[C@@H]2CCCN2C1=O` the Papp A→B [1] was under 0.14 ×10⁻⁶ cm/s and the Papp at 5 h, 50 µM [2] was 0.03 ×10⁻⁶ cm/s.

`CC(C)C[C@@H]1NC(=O)[C@@H](CC(C)C)N(C)C(=O)[C@H](CC(C)C)NC(=O)[C@H](Cc2ccc(O)cc2)N(C)C(=O)[C@H]2CCCN2C(=O)[C@H](CC(C)C)NC1=O` showed a Papp A→B [1] of 7.75 ×10⁻⁶ cm/s and a Papp at 5 h, 50 µM [2] of 1.51 ×10⁻⁶ cm/s.
